The structures appear in SMILES notation.

The target in assay [1] is Fibroblast growth factor receptor 2 (Homo sapiens, UniProt P21802). Kind of assay: FGFR2 Activity Inhibition Test: The reaction buffer contains the following components: 5-fold diluted enzymatic buffer/kinase 5x(Cisbio, Cat No. 62EZBFDD)(its main component is 50nM HEPES, pH 7.0), 5mM MgCl2 and 1 mM DTT, a human recombinant FGFR2 catalytic domain protein (amino acid 400-821) which was purchased from Yiqiao Shenzhou Biotech Co. Ltd., a 0.45ng/uL kinase solution diluted by the ….
Fibroblast growth factor receptor 2, sequence (P21802 whole entry, the tested form may be a part): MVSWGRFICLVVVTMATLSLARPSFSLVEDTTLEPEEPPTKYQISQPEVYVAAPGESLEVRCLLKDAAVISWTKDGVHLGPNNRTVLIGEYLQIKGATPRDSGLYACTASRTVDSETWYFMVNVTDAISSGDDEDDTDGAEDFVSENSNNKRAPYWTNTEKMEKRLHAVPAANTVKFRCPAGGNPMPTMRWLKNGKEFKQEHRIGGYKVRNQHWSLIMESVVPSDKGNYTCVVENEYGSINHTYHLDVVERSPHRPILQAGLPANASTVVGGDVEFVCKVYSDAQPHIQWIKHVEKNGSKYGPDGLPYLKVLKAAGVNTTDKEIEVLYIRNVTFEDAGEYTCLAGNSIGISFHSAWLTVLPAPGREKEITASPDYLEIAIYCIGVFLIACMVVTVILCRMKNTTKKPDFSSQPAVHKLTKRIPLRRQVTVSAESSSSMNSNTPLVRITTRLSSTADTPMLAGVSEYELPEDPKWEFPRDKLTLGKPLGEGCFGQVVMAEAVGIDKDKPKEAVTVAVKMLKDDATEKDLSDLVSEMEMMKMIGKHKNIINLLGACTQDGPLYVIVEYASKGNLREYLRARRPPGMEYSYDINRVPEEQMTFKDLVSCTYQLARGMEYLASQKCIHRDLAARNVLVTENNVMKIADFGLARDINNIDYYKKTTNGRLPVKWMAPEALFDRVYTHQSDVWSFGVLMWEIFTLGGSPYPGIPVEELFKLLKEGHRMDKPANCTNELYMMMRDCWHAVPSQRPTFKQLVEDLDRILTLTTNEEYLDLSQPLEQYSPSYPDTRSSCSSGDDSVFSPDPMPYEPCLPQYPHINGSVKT

In assay [2] the target is Fibroblast growth factor receptor 3 (Homo sapiens, UniProt P22607). As to the kind of experiment: FGFR3 Activity Inhibition Test: The reaction buffer contains the following components: 5-fold diluted enzymatic buffer/kinase 5x(Cisbio, Cat No. 62EZBFDD)(its main component is 50nM HEPES, pH 7.0), 5mM MgCl2 and 1 mM DTT, a […] which was purchased from Yiqiao Shenzhou Biotech Co. Ltd., a 0.3 ng/uL kinase solution diluted by the ….
Fibroblast growth factor receptor 3, sequence (P22607 whole entry): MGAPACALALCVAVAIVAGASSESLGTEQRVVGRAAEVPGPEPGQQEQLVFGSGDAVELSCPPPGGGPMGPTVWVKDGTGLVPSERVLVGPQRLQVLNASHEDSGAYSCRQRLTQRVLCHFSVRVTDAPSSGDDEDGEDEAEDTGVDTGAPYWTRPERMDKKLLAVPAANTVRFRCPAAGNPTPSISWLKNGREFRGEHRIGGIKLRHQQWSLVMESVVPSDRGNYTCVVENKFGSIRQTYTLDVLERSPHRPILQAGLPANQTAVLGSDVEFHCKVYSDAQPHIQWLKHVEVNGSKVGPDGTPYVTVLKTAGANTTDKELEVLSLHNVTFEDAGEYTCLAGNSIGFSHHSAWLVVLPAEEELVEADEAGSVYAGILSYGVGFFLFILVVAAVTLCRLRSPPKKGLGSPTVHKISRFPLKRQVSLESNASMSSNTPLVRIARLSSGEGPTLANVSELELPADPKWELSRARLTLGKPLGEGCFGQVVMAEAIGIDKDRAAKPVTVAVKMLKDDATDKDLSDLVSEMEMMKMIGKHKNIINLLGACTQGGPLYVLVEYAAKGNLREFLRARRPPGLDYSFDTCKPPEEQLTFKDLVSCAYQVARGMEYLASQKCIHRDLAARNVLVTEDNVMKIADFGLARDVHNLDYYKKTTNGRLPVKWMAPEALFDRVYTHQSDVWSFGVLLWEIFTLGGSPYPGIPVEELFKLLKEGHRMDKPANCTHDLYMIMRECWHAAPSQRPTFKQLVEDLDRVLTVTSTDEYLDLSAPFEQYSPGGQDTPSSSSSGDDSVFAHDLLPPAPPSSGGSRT

For `CC#CC(=O)N1CC[C@H](n2nc(C#Cc3cc(OC)cc(OC)c3)c(C(N)=O)c2N)C1`, the IC50 in assay [1] and in assay [2] was less than 10 nM throughout.

The values are drawn from ChEMBL document CHEMBL5729575, “Alkynyl-substituted heterocyclic compound, preparation method therefor and medical use thereof” (2023).
